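GI50 = concentration required for 50% inhibition of growth. Definition used: TGI = concentration required for complete inhibition of growth.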
Tests used:
Experiment in all cases: NCI-60 cell line screen, 384-well format
OVCAR-3 ovarian = system: OVCAR-3 ovarian
SK-MEL-5 melanoma = system: SK-MEL-5 melanoma
HS 578T breast = system: HS 578T breast
DU-145 prostate = system: DU-145 prostate
U251 glioblastoma = system: U251 glioblastoma
UO-31 renal = system: UO-31 renal
T-47D breast = system: T-47D breast
UACC-257 melanoma = system: UACC-257 melanoma
SK-MEL-2 melanoma = system: SK-MEL-2 melanoma
MDA-MB-468 breast = system: MDA-MB-468 breast
SK-OV-3 ovarian = system: SK-OV-3 ovarian
RXF 393 renal = system: RXF 393 renal
UACC-62 melanoma = system: UACC-62 melanoma

CC(O)[C@H](NC(=O)N[C@@H](CC(N)=O)c1nc(N2CCNCC2)no1)C(=O)O (stereo partly specified)
GI50 (OVCAR-3 ovarian): > 100 µM
TGI (OVCAR-3 ovarian): > 100 µM
GI50 (SK-MEL-5 melanoma): > 100 µM
TGI (SK-MEL-5 melanoma): > 100 µM
GI50 (HS 578T breast): > 100 µM
TGI (HS 578T breast): > 100 µM
GI50 (DU-145 prostate): > 100 µM
TGI (DU-145 prostate): > 100 µM
GI50 (U251 glioblastoma): > 100 µM
TGI (U251 glioblastoma): > 100 µM
GI50 (UO-31 renal): > 100 µM
TGI (UO-31 renal): > 100 µM
GI50 (T-47D breast): > 100 µM
TGI (T-47D breast): > 100 µM
GI50 (UACC-257 melanoma): > 100 µM
TGI (UACC-257 melanoma): > 100 µM
GI50 (SK-MEL-2 melanoma): > 100 µM
TGI (SK-MEL-2 melanoma): > 100 µM
GI50 (MDA-MB-468 breast): > 100 µM
TGI (MDA-MB-468 breast): > 100 µM
GI50 (SK-OV-3 ovarian): > 100 µM
TGI (SK-OV-3 ovarian): > 100 µM
GI50 (RXF 393 renal): > 100 µM
TGI (RXF 393 renal): > 100 µM
GI50 (UACC-62 melanoma): > 100 µM
TGI (UACC-62 melanoma): > 100 µM

— PubChem BioAssay (NCI)
